Experimental findings from patent publication US20260166045A1, “COMBINATION THERAPY COMPRISING GSPT1-DIRECTED MOLECULAR GLUE DEGRADERS AND PI3K/AKT/mTOR PATHWAY INHIBITORS” (Monte Rosa Therapeutics, Inc., priority 2022, published 2026) are described below.

The subject of the test is MCF7 xenografts. The experiment in a line: MCF7 cell-derived xenograft (CDX) in vivo combination study. Set-up: species or system BALB/c nude mice. The conditions noted are these: compound 1-1 10 mg/kg; for Δ TV ratio to vehicle group (A/C, B/C, (AB)/C): day 28, Clarke method; for Δ TV (delta tumor volume): p.o. qd for 28 days, average of four tumors. On the procedure: […] (0.36 mg) pellets (Innovative Research of America Cat. No.: SE-121, pellet size: 3.0 mm) were implanted 2-3 days before cell inoculation.
Compound 1-1 was formulated every day freshly as a solution in 5% DMSO/95% (30% w/v HPβCD in water). This formulation was also used as vehicle control. Everolimus was formulated as a suspension in 1% MC (400 cps), which was prepared every 3 days.
Body weights were measured at the same time.
An approximation of drug interactions was made using the method described by Clarke (Clarke et al. 1997. Breast Cancer Res Treat. 46(2-3):255-78). This was applied to […] and can estimate interactions from limited data. In short, for compound A, B, or the combination AB (with control group C), antagonism is predicted when (AB)/C>(A/C)×(B/C), an additive effect is predicted when (AB)/C=(A/C)×(B/C), and synergistic interaction is predicted to occur when (AB)/C<(A/C)×(B/C). Calculations in Table 10B indicate that the interaction of everolimus and compound 1-1 in the MCF7 CDX model is synergistic.
17β-Estradiol (0.36 mg) pellets (Innovative Research of America Cat. No.: SE-121, pellet size: 3.0 mm) were implanted 2-3 days before cell inoculation.
Compound 1-1 was formulated every day freshly as a solution in 5% DMSO/95% (30% w/v HPβCD in water). This formulation was also used as vehicle control. Alpelisib was formulated as a solution in 20% captisol+80% water (pH adjusted to 4), which was prepared every week.

As for `O=C1CCC(N2Cc3ccc(COC(=O)Nc4cc(OC(F)(F)F)ccc4F)cc3C2=O)C(=O)N1` (stereo not drawn) [Compound 1-1, [2-(2,6-dioxopiperidin-3-yl)-3-oxo-2,3-dihydro-1H-isoindol-5-yl]methyl N-[2-fluoro-5-(trifluoromethoxy)phenyl]carbamate], under “day 28, ANOVA with post hoc Tukey's test, alpelisib 50 mg/kg, p.o. qd”, the “anti-tumor effect compared to vehicle” value is on record as “significant anti-tumor effect”. Further, the “antitumor effect vs vehicle (tumor volume)” value (day 28, ANOVA with post hoc Tukey's test, everolimus 2 mg/kg, p.o. qd) is on record as “statistically significant antitumor effects”. Besides, the “Δ TV ratio to vehicle group (A/C, B/C, (AB)/C)” value by setting is: (alpelisib 50 mg/kg, p.o. qd) 0.35; (everolimus 2 mg/kg, p.o. qd) 0.35. Moreover, the “Δ TV (delta tumor volume)” value by setting is: (day 28, alpelisib 50 mg/kg, combination 50 + 10 mg/kg) 216 mm^3; (day 28, everolimus 2 mg/kg, combination 2 + 10 mg/kg) 216 mm3.
